Assay results reported in PubChem BioAssay AID1963983 (Molecular Pharmacology Branch, DTP, NCI, 2024).

System: 186277-243-T-J2-PDC multi-cell spheroid viability
Experiment: Anticancer human tumor 186277-243-T-J2-PDC patient-derived colon adenocarcinoma cell line growth inhibition [PI3K]
Conditions: for IC50: curve of first compound; for viability, T/C: stronger effect = lower value
Outline: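 Complex 3D spheroids (cancer cells + endothelial HUVEC + mesenchymal stem cells); drug pairs of targeted agent x inavolisib/alpelisib/duvelisib/copanlisib; half-log series from ~Cmax, max 10 microM if Cmax unknown; endpoint viability.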

[1] = second compound 0.00316 µM, first compound 0.0316 µM
[2] = second compound 0.00316 µM, first compound 0.1 µM
[3] = second compound 0.00316 µM, first compound 0.316 µM
[4] = second compound 0.00316 µM, first compound 1 µM
[5] = second compound 0.01 µM, first compound 0.0316 µM
[6] = second compound 0.01 µM, first compound 0.1 µM
[7] = second compound 0.01 µM, first compound 0.316 µM
[8] = second compound 0.01 µM, first compound 1 µM
[9] = second compound 0.0316 µM, first compound 0.0316 µM
[10] = second compound 0.0316 µM, first compound 0.1 µM
[11] = second compound 0.0316 µM, first compound 0.316 µM
[12] = second compound 0.0316 µM, first compound 1 µM
[13] = second compound 0.1 µM, first compound 0.0316 µM
[14] = second compound 0.1 µM, first compound 0.1 µM
[15] = second compound 0.1 µM, first compound 0.316 µM
[16] = second compound 0.1 µM, first compound 1 µM
[17] = second compound 0.316 µM, first compound 0.0316 µM
[18] = second compound 0.316 µM, first compound 0.1 µM
[19] = second compound 0.316 µM, first compound 0.316 µM
[20] = second compound 0.316 µM, first compound 1 µM
[21] = second compound 1 µM, first compound 0.0316 µM
[22] = second compound 1 µM, first compound 0.1 µM
[23] = second compound 1 µM, first compound 0.316 µM
[24] = second compound 1 µM, first compound 1 µM
[25] = second compound 0.00316 µM, first compound 3.16 µM
[26] = second compound 0.00316 µM, first compound 10 µM
[27] = second compound 0.01 µM, first compound 3.16 µM
[28] = second compound 0.01 µM, first compound 10 µM
[29] = second compound 0.0316 µM, first compound 3.16 µM
[30] = second compound 0.0316 µM, first compound 10 µM
[31] = second compound 0.1 µM, first compound 3.16 µM
[32] = second compound 0.1 µM, first compound 10 µM
[33] = second compound 0.316 µM, first compound 3.16 µM
[34] = second compound 0.316 µM, first compound 10 µM
[35] = second compound 1 µM, first compound 3.16 µM
[36] = second compound 1 µM, first compound 10 µM
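Note: spheroids exposed to compounds for seven days before viability reading.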
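Throughout, for viability, T/C: 100% = DMSO vehicle control viability.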

CCN1CCN(Cc2ccc(Nc3ncc(F)c(-c4cc(F)c5nc(C)n(C(C)C)c5c4)n3)nc2)CC1 + COc1c(OCCCN2CCOCC2)ccc2c3n(c(=NC(=O)c4cnc(N)nc4)nc12)CCN3
IC50 (second compound 0.00316 µM): > 1000 nM | IC50 (second compound 0.01 µM): > 1000 nM | IC50 (second compound 0.0316 µM): 234 nM | IC50 (second compound 0.1 µM): < 3.16 nM | IC50 (second compound 0.316 µM): < 3.16 nM | IC50 (second compound 1 µM): < 3.16 nM | viability, T/C (second compound 0.00316 µM, first compound 0.00316 µM): 95.3% | viability, T/C (second compound 0.00316 µM, first compound 0.01 µM): 111% | viability, T/C [1]: 94.3% | viability, T/C [2]: 134% | viability, T/C [3]: 151% | viability, T/C [4]: 108% | viability, T/C (second compound 0.01 µM, first compound 0.00316 µM): 101% | viability, T/C (second compound 0.01 µM, first compound 0.01 µM): 107% | viability, T/C [5]: 113% | viability, T/C [6]: 112% | viability, T/C [7]: 123% | viability, T/C [8]: 69.4% | viability, T/C (second compound 0.0316 µM, first compound 0.00316 µM): 68.4% | viability, T/C (second compound 0.0316 µM, first compound 0.01 µM): 59.7% | viability, T/C [9]: 57.8% | viability, T/C [10]: 52.4% | viability, T/C [11]: 54.8% | viability, T/C [12]: 33.2% | viability, T/C (second compound 0.1 µM, first compound 0.00316 µM): 19.9% | viability, T/C (second compound 0.1 µM, first compound 0.01 µM): 17.7% | viability, T/C [13]: 16% | viability, T/C [14]: 13% | viability, T/C [15]: 14.5% | viability, T/C [16]: 12.8% | viability, T/C (second compound 0.316 µM, first compound 0.00316 µM): 6.67% | viability, T/C (second compound 0.316 µM, first compound 0.01 µM): 7.13% | viability, T/C [17]: 4.73% | viability, T/C [18]: 3.28% | viability, T/C [19]: 6.05% | viability, T/C [20]: 7.03% | viability, T/C (second compound 1 µM, first compound 0.00316 µM): 2.68% | viability, T/C (second compound 1 µM, first compound 0.01 µM): 3% | viability, T/C [21]: 2.82% | viability, T/C [22]: 2.7% | viability, T/C [23]: 7% | viability, T/C [24]: 4.26%

Cn1ncc(Cl)c1-c1cc(C(=O)NC(CN)Cc2cccc(F)c2)sc1Cl (stereo unspecified) + COc1c(OCCCN2CCOCC2)ccc2c3n(c(=NC(=O)c4cnc(N)nc4)nc12)CCN3
IC50 (second compound 0.00316 µM): 224 nM | IC50 (second compound 0.01 µM): 225 nM | IC50 (second compound 0.0316 µM): 46.8 nM | IC50 (second compound 0.1 µM): < 31.6 nM | IC50 (second compound 0.316 µM): < 31.6 nM | IC50 (second compound 1 µM): < 31.6 nM | viability, T/C [1]: 93% | viability, T/C [2]: 63.4% | viability, T/C [3]: 42.9% | viability, T/C [4]: 30.4% | viability, T/C [25]: 20.4% | viability, T/C [26]: 9.36% | viability, T/C [5]: 86.4% | viability, T/C [6]: 71.8% | viability, T/C [7]: 38.2% | viability, T/C [8]: 23.1% | viability, T/C [27]: 14.4% | viability, T/C [28]: 4.57% | viability, T/C [9]: 58.3% | viability, T/C [10]: 33.6% | viability, T/C [11]: 23.5% | viability, T/C [12]: 13.7% | viability, T/C [29]: 10.4% | viability, T/C [30]: 2.08% | viability, T/C [13]: 21.1% | viability, T/C [14]: 13.3% | viability, T/C [15]: 8.18% | viability, T/C [16]: 6.79% | viability, T/C [31]: 6.13% | viability, T/C [32]: 1.39% | viability, T/C [17]: 4.19% | viability, T/C [18]: 4.53% | viability, T/C [19]: 2.93% | viability, T/C [20]: 5.08% | viability, T/C [33]: 3.95% | viability, T/C [34]: 0.44% | viability, T/C [21]: 2.43% | viability, T/C [22]: 1.6% | viability, T/C [23]: 2.02% | viability, T/C [24]: 1.95% | viability, T/C [35]: 1.4% | viability, T/C [36]: 0.21%

Cn1nccc1Nc1nccc(-c2ccn(C(CO)c3ccc(Cl)c(F)c3)c(=O)c2)n1 (stereo unspecified) + COc1c(OCCCN2CCOCC2)ccc2c3n(c(=NC(=O)c4cnc(N)nc4)nc12)CCN3
IC50 (second compound 0.00316 µM): 1080 nM | IC50 (second compound 0.01 µM): 502 nM | IC50 (second compound 0.0316 µM): < 31.6 nM | IC50 (second compound 0.1 µM): < 31.6 nM | IC50 (second compound 0.316 µM): < 31.6 nM | IC50 (second compound 1 µM): < 31.6 nM | viability, T/C [1]: 109% | viability, T/C [2]: 107% | viability, T/C [3]: 89.2% | viability, T/C [4]: 51.6% | viability, T/C [25]: 24.3% | viability, T/C [26]: 15.1% | viability, T/C [5]: 86.3% | viability, T/C [6]: 94.6% | viability, T/C [7]: 57.7% | viability, T/C [8]: 32.6% | viability, T/C [27]: 14.7% | viability, T/C [28]: 5.46% | viability, T/C [9]: 47.2% | viability, T/C [10]: 34.6% | viability, T/C [11]: 18.4% | viability, T/C [12]: 10.2% | viability, T/C [29]: 6.79% | viability, T/C [30]: 8.22% | viability, T/C [13]: 9.72% | viability, T/C [14]: 8.17% | viability, T/C [15]: 6.57% | viability, T/C [16]: 2.91% | viability, T/C [31]: 2.2% | viability, T/C [32]: 1.76% | viability, T/C [17]: 3.78% | viability, T/C [18]: 6.01% | viability, T/C [19]: 1.78% | viability, T/C [20]: 1.08% | viability, T/C [33]: 1.43% | viability, T/C [34]: 0.17% | viability, T/C [21]: 2.33% | viability, T/C [22]: 2.25% | viability, T/C [23]: 0.33% | viability, T/C [24]: 0.28% | viability, T/C [35]: 0.15% | viability, T/C [36]: 0.27%
